Test results taken from US20210355106A1, “NEW AMINO-PYRIMIDONYL-PIPERIDINYL DERIVATIVES, A PROCESS FOR THEIR PREPARATION AND PHARMACEUTICAL COMPOSITIONS CONTAINING THEM” (LES LABORATOIRES SERVIER, priority 2018, published 2021).

Experiments:
[1] = target: T1, USP7 (Homo sapiens, UniProt Q93009, C315A); test: Inhibition of USP7 by Fluorescence Intensity (FLINT) readings, Ubiquitin-Rhodamine-110 substrate; type: biochemical; settings: 0.25 nM His-His-USP7 (aa208-560), 60 minutes at 30° C. preincubation; Ki determined from IC50 according to Cer et al.
T1 construct: 0.25 nM His-His-USP7 (aa208-560, |C315A|) was incubated with compound; His-His (N)
T1 sequence (Q93009 208-560 C315A): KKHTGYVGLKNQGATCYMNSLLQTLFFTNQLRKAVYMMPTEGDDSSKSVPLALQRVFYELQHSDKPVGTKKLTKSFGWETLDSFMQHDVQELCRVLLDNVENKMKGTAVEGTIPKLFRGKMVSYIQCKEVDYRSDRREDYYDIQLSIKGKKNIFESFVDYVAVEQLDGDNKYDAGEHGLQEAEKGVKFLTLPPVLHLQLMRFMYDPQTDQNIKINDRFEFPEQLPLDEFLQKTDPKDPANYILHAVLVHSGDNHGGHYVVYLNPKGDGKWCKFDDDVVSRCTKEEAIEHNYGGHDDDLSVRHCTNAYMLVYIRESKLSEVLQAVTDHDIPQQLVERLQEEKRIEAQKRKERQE
Procedure, shortened: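 Kinetic rate of Rhodamine-110 release from ubiquitin substrate (50 nM or 4 μM), read every 3 min for 21 min, after 60 min, 30 °C preincubation of 0.25 nM USP7 catalytic domain C315A with compound. Bicine pH 8.0 buffer, 10% DMSO; 11-point IC50 vs DMSO and no-enzyme controls, converted to Ki.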

[2] = system: Z138 mantle cell lymphoma tumour cell lines; test: In vitro cytotoxicity, MTT assay; type: cell-based; settings: Homo sapiens, Z-138; Z138 cells, exposed to the test compounds for 96 hours
Procedure, shortened: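 MTT viability read-out: after 96 hours of compound treatment, Z138 mantle cell lymphoma cells received MTT for 4 hours, and formazan production was quantified by absorbance at 540 nm.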

## Cc1cncc(C(=O)N2CC[C@@H](C(=O)N3CCC(O)(Cn4cnc(Oc5ccc(F)cc5)c(N)c4=O)CC3)[C@H](c3ccccc3)C2)c1 [Example 92, 5-amino-6-(4-fluorophenoxy)-3-({4-hydroxy-1-[(3R,4R)-1-(5-methylpyridine-3-carbonyl)-3-phenylpiperidine-4-carbonyl]piperidin-4-yl}methyl)pyrimidin-4(3H)-one]
[1]
  Ki: 4.9 nM
[2]
  IC50: 45.7 nM

## Cc1cncc(C(=O)N2CC[C@@H](C(=O)N3CC[C@](O)(Cn4cnc(Oc5ccc(F)cc5)c(N)c4=O)C(F)(F)C3)[C@H](c3ccccc3)C2)c1 [Example 157, 5-amino-3-[[(4S)-3,3-difluoro-4-hydroxy-1-[(3R,4R)-1-(5-methylpyridine-3-carbonyl)-3-phenyl-piperidine-4-carbonyl]-4-piperidyl]methyl]-6-(4-fluorophenoxy)pyrimidin-4-one]
[1]
  Ki: 4.83 nM
[2]
  IC50: 5.18 nM

## Cc1ccc(-c2nc(C)c(C(=O)N3CC[C@@H](C(=O)N4CC[C@](O)(Cn5cnc(Oc6ccc(CN)cc6)c(N)c5=O)C(F)(F)C4)[C@H](c4ccccc4)C3)s2)cn1 [Example 210]
[1]
  Ki: 0.215 nM
[2]
  IC50: 1.85 nM

## COc1cc(Oc2ncn(C[C@@]3(O)CCN(C(=O)[C@@H]4CCN(Cc5ccnc(C)n5)C[C@H]4c4ccccc4)CC3(F)F)c(=O)c2N)ccc1C1CC1 [Example 188, 5-amino-6-(4-cyclopropyl-3-methoxy-phenoxy)-3-[[(4S)-3,3-difluoro-4-hydroxy-1-[(3R,4R)-1-[(2-methylpyrimidin-4-yl)methyl]-3-phenyl-piperidine-4-carbonyl]-4-piperidyl]methyl]pyrimidin-4-one]
[1]
  Ki: 69.9 nM
[2]
  IC50: 69 nM

## Nc1c(Oc2cccc(C(F)(F)F)c2)ncn(CC2(O)CCN(C(=O)[C@@H]3CCN(C(=O)c4sc(I)cc4F)C[C@H]3c3ccccc3)CC2)c1=O [Example 99, 5-amino-3-[[1-((3R,4R)-1-(3-fluoro-5-iodo-thiophene-2-carbonyl)-3-phenyl-piperidine-4-carbonyl]-4-hydroxy-4-piperidyl]methyl]-6-[3-(trifluoromethyl)phenoxy]pyrimidin-4-one]
[1]
  Ki: 56 nM
[2]
  IC50: 120 nM

## COc1cc(Oc2ncn(C[C@@]3(O)CCN(C(=O)[C@@H]4CCN(Cc5cnc(C)cn5)C[C@H]4c4ccccc4)CC3(F)F)c(=O)c2N)ccc1F [Example 154]
[1]
  Ki: 7.8 nM
[2]
  IC50: 11.4 nM

## Cc1cc(Cl)cc(C(=O)N2CC[C@@H](C(=O)N3CCC(O)(Cn4cnc(Oc5ccc(F)cc5)c(N)c4=O)CC3)[C@H](c3ccccc3)C2)c1 [Example 162]
[1]
  Ki: 12.7 nM
[2]
  IC50: 3.72 nM

## COc1cc(Cl)cc(Oc2ncn(C[C@@]3(O)CCN(C(=O)[C@@H]4CCN(Cc5cnc(C)cn5)C[C@H]4c4ccccc4)CC3(F)F)c(=O)c2N)c1 [Example 178]
[1]
  Ki: 70.1 nM
[2]
  IC50: 31.8 nM

## Nc1c(Oc2ccc(F)cc2)ncn(CC2(O)CCN(C(=O)[C@@H]3CCN(C4(c5ccccc5F)COC4)C[C@H]3c3ccccc3)CC2)c1=O [Example 109]
[1]
  Ki: 65 nM
[2]
  IC50: 11 nM

## Nc1c(Oc2ccc(F)cc2)ncn(CC2(O)CCN(C(=O)[C@@H]3CCN(C(=O)c4cc(F)cc(F)c4)C[C@H]3c3ccccc3)CC2)c1=O [Example 129, 5-amino-3-[[1-[(3R,4R)-1-(3,5-difluorobenzoyl)-3-phenyl-piperidine-4-carbonyl]-4-hydroxy-4-piperidyl]methyl]-6-(4-fluorophenoxy)pyrimidin-4-one]
[1]
  Ki: 2.87 nM
[2]
  IC50: 5.2 nM

## Cc1ccccc1C1(N2CC[C@@H](C(=O)N3CCC(O)(Cn4cnc(Oc5ccc(F)cc5)c(N)c4=O)CC3)[C@H](c3ccccc3)C2)COC1 [Example 138]
[1]
  Ki: 45 nM
[2]
  IC50: 24 nM

## Nc1c(Oc2ccc(F)cc2)ncn(C[C@@]2(O)CCN(C(=O)[C@@H]3CCN(C(=O)c4sc(I)cc4F)C[C@H]3c3ccccc3)CC2(F)F)c1=O [Example 104, 5-amino-3-[[(4S)-3,3-difluoro-1-[(3R,4R)-1-(3-fluoro-5-iodo-thiophene-2-carbonyl)-3-phenyl-piperidine-4-carbonyl]-4-hydroxy-4-piperidyl]methyl]-6-(4-fluorophenoxy)pyrimidin-4-one]
[1]
  Ki: 15 nM
[2]
  IC50: 37.2 nM

## Cc1nc(-c2ccc(N(C)C)nc2)sc1C(=O)N1CC[C@@H](C(=O)N2CCC(O)(Cn3cnc(Oc4cccc(C(F)(F)F)c4)c(N)c3=O)CC2)[C@H](c2ccccc2)C1 [Example 126]
[1]
  Ki: 4.44 nM
[2]
  IC50: 29.5 nM

## Cc1cnc(CN2CC[C@@H](C(=O)N3CC[C@](O)(Cn4cnc(Oc5cccc(C(F)(F)F)c5)c(N)c4=O)C(F)(F)C3)[C@H](c3ccccc3)C2)cn1 [Example 144, 5-amino-3-{[(4S)-3,3-difluoro-4-hydroxy-1-[(3R,4R)-1-((5-methylpyrazin-2-yl)methyl]-3-phenyl-piperidine-4-carbonyl]-4-piperidyl]methyl]-6-[3-(trifluoromethyl)phenoxy]pyrimidin-4-one]
[1]
  Ki: 22 nM
[2]
  IC50: 80.2 nM

## Cc1ccc(-c2ncc(CN3CC[C@@H](C(=O)N4CCC(O)(Cn5cnc(Oc6ccc(F)cc6)c(N)c5=O)CC4)[C@H](c4ccccc4)C3)s2)cn1 [Example 51, 5-amino-6-(4-fluorophenoxy)-3-({4-hydroxy-1-[(3R,4R)-1-{{2-(6-methylpyridin-3 yl)-1,3-thiazol-5-yl]methyl}-3-phenylpiperidine-4-carbonyl]piperidin-4-yl}methyl)pyrimidin-4(3H)-one]
[1]
  Ki: 2.6 nM
[2]
  IC50: 1.4 nM

## Nc1c(Oc2ccc(F)cc2)ncn(CC2(O)CCN(C(=O)[C@@H]3CCN(C(=O)c4cccc5cnccc45)C[C@H]3c3ccccc3)CC2)c1=O [Example 102, 5-amino-6-(4-fluorophenoxy)-3-({4-hydroxy-1-[(3R,4R)-1-(isoquinoline-5-carbonyl)-3-phenylpiperidine-4-carbonyl]piperidin-4-yl}methyl)pyrimidin-4(3H)-one]
[1]
  Ki: 4.1 nM
[2]
  IC50: 9.31 nM

## COc1ccccc1C1(N2CC[C@@H](C(=O)N3CCC(O)(Cn4cnc(Oc5ccc(F)cc5)c(N)c4=O)CC3)[C@H](c3ccccc3)C2)COC1 [Example 139, 5-amino-6-(4-fluorophenoxy)-3-[[4-hydroxy-1-[(3R,4R)-1-[3-(2-methoxyphenyl)oxetan-3-yl]-3-phenyl-piperidine-4-carbonyl]-4-piperidyl]methyl]pyrimidin-4-one]
[1]
  Ki: 19 nM
[2]
  IC50: 24.6 nM

## Cc1ccc(-c2cccc(S(=O)(=O)N3CC[C@@H](C(=O)N4CCC(O)(Cn5cnc(Oc6ccc(F)cc6)c(N)c5=O)CC4)[C@H](c4ccccc4)C3)c2)cn1 [Example 159, 5-amino-6-(4-fluorophenoxy)-3-[[4-hydroxy-1-[(3R,4R)-1-[3-(6-methyl-3-pyridyl)phenyl]sulfonyl-3-phenyl-piperidine-4-carbonyl]-4-piperidyl]methyl]pyrimidin-4-one]
[1]
  Ki: 22.2 nM
[2]
  IC50: 8.18 nM

## Cc1ccc(-c2nc(C)c(C(=O)N3CC[C@@H](C(=O)N4CCC(O)(Cn5cnc(Oc6ccc(F)cc6)c(N)c5=O)CC4)[C@H](c4ccccc4)C3)s2)cn1 [Example 47, 5-amino-6-(4-fluorophenoxy)-3-[(4-hydroxy-1-{(3R,4R)-1-[4-methyl-2-(6-methylpyridin-3-yl)-1,3-thiazole-5-carbonyl]-3-phenylpiperidine-4-carbonyl}piperidin-4-yl)methyl]pyrimidin-4(3H)-one]
[1]
  Ki: 2.2 nM
[2]
  IC50: 0.92 nM

## Nc1c(Oc2ccc(F)cc2)ncn(C[C@@]2(O)CCN(C(=O)[C@@H]3CCN(Cc4ccnc(-c5ccccc5)n4)C[C@H]3c3ccccc3)CC2(F)F)c1=O [Example 177, 5-amino-3-[[(4S)-3,3-difluoro-4-hydroxy-1-[(3R,4R)-3-phenyl-1-[(2-phenylpyrimidin-4-yl)methyl]piperidine-4-carbonyl]-4-piperidyl]methyl]-6-(4-fluorophenoxy)pyrimidin-4-one]
[1]
  Ki: 9.99 nM
[2]
  IC50: 2.32 nM

## Cc1nc(C2CC(F)(F)C2)sc1C(=O)N1CC[C@@H](C(=O)N2CC[C@](O)(Cn3cnc(Oc4ccc(F)cc4)c(N)c3=O)C(F)(F)C2)[C@H](c2ccccc2)C1 [Example 190]
[1]
  Ki: 12.4 nM
[2]
  IC50: 6.82 nM

## COc1cc(Oc2ncn(C[C@@]3(O)CCN(C(=O)[C@@H]4CCN(Cc5nccc(C)n5)C[C@H]4c4ccccc4)CC3(F)F)c(=O)c2N)ccc1F [Example 216]
[1]
  Ki: 25.7 nM
[2]
  IC50: 19.1 nM

## Cc1nc(C2CCCC2)sc1C(=O)N1CC[C@@H](C(=O)N2CCC(O)(Cn3cnc(Oc4ccc(F)cc4)c(N)c3=O)CC2)[C@H](c2ccccc2)C1 [Example 161, 5-amino-3-[[1-[(3R,4R)-1-(2-cyclopentyl-4-methyl-thiazole-5-carbonyl)-3-phenyl-piperidine-4-carbonyl]-4-hydroxy-4-piperidyl]methyl]-6-(4-fluorophenoxy)pyrimidin-4-one]
[1]
  Ki: 10.1 nM
[2]
  IC50: 3.63 nM

## Cc1nccc(CN2CC[C@@H](C(=O)N3CCC(O)(Cn4cnc(Oc5ccc(CO)cc5)c(N)c4=O)CC3)[C@H](c3ccccc3)C2)n1 [Example 200]
[1]
  Ki: 30 nM
[2]
  IC50: 106 nM

## Cc1ccc(-c2nc(C)c(C(=O)N3CC[C@@H](C(=O)N4CCC(O)(Cn5cnc(Oc6ccc(Cl)c(F)c6)c(N)c5=O)CC4)[C@H](c4ccccc4)C3)s2)cn1 [Example 24, 5-amino-6-(4-chloro-3-fluorophenoxy)-3-[(4-hydroxy-1-{(3R,4R)-1-[4-methy-2-(6-methylpyridin-3-yl)-1,3-thiazole-5-carbonyl]-3-phenylpiperidine-4-carbonyl}piperidin-4-yl)methyl]pyrimidin-4(3H)-one]
[1]
  Ki: 4 nM
[2]
  IC50: 9.9 nM

## Nc1c(Oc2ccc(F)cc2)ncn(CC2(O)CCN(C(=O)[C@@H]3CCN(C(=O)c4cc(F)cc(Br)c4)C[C@H]3c3ccccc3)CC2)c1=O [Example 98]
[1]
  Ki: 3.05 nM
[2]
  IC50: 7 nM
